Results from patent publication US20240132525A1, “BORON […], CO[…], METHODS AND USES THEREOF” (priority 2022, published 2024).
Where a name gives a salt, the structure may show the parent alone. Read-outs that look alike come from different tables or passages of the source.

Assays:
JAK2 = JAK2 (Homo sapiens (Human), UniProt O60674); assay: Biochemical kinase assay (33P-ATP filter-binding), JAK2
From the text: (§1) Biochemical Kinase Assay Protocol (JAK)
(§2) Reaction Procedure: • 1. […] Detected kinase activity by filter-binding method.

JAK1 = JAK1 (Homo sapiens (Human), UniProt P23458); assay: Biochemical kinase assay (33P-ATP filter-binding), JAK1
JAK1, sequence (P23458 whole entry, species assumed): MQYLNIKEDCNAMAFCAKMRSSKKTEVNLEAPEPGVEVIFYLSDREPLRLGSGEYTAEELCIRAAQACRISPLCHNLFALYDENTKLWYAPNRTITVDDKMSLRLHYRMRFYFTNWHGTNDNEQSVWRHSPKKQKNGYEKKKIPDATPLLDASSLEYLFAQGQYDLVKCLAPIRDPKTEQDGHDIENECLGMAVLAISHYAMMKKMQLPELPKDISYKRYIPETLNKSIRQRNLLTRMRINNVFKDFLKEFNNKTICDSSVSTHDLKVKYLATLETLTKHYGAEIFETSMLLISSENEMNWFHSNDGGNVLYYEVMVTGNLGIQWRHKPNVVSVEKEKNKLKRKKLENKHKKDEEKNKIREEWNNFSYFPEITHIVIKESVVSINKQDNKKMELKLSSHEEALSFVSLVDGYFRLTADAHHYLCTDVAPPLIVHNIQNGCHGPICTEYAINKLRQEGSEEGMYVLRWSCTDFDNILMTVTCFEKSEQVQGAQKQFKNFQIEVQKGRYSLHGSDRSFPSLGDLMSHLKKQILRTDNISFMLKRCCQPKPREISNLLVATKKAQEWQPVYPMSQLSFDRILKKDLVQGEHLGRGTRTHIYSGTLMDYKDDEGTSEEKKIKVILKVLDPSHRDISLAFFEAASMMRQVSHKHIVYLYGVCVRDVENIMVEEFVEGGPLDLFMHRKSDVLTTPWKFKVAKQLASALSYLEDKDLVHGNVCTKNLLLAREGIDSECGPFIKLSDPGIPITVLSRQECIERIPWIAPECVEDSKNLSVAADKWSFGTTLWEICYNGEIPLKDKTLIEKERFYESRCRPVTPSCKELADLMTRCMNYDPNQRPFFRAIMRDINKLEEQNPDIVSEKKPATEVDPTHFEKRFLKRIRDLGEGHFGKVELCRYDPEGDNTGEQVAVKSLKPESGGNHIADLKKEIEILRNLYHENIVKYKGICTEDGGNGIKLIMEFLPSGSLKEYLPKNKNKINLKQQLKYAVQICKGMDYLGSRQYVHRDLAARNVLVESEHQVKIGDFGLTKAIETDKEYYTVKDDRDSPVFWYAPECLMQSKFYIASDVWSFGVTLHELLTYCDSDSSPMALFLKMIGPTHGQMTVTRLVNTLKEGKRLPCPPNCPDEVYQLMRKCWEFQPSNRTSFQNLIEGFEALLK
From the text: as §1, §2

[1] = Dog LM (liver microsome) assay; assay type: in vitro ADME; conditions: Table 3a; predicted clearance as percent of liver blood flow, 1 μM, 1 mg/ml microsomal protein
Method: Dog LM (Liver Microsome) Assay
The metabolic degradation of the test compound is assayed at 37° C. with pooled liver microsomes from dogs (Beagle). The final incubation volume of 100 μl per time point contains TRIS buffer pH 7.6 at RT (0.1 M), magnesium chloride (5 mM), microsomal protein (1 mg/ml) and the test compound at a final concentration of 1 μM. Following a short preincubation period at 37° C., the reactions were initiated by addition of beta-nicotinamide adenine dinucleotide phosphate, reduced form (NADPH, 1 mM) and terminated by transferring an aliquot into solvent after different time points. Additionally, the NADPH-independent degradation was monitored in incubations without NADPH, terminated at the last time point. The [%] remaining test compound after NADPH independent incubation is reflected by the parameter c (control) (metabolic stability). The quenched incubations are pelleted by centrifugation (10000 g, 5 min). An aliquot of the supernatant is assayed by LC-MS/MS for the amount of parent compound. The half-life (t½ INVITRO) is determined by the slope of the semilogarithmic plot of the concentration-time profile. The intrinsic clearance (CL_[…]) is calculated by considering the amount of protein in the incubation: CL_[…] [μl/min/mg protein]=(Ln 2/(half-life [min]*protein content [mg/ml]))*1000. For better across species comparison the predicted clearance is expressed as percent of the liver blood flow [% QH] in the individual species. In general, high stability (corresponding to low % QH) of the compounds across species is desired.

IL-4/pSTAT6 = assay: Cytokine function assay IL-4/pSTAT6 in PBMC; assay type: cell-based; conditions: PBMC, read-out: IC50 IL-4, Table 3a
Method: Cytokine Function Assay Protocols for IL-4/pSTAT6 and GM-CSF/pSTAT5
IL-4/pSTAT6: • PBMC from a healthy donor was plated onto a 96 w plate. Compound was added and incubated for 1 hour (at 37° C.). After 1 hour, cells were stimulated with IL-4 for 15 minutes. Cells were fixed and stained with anti-pSTAT6 antibody. After staining, cells were read on a Beckman-Coulter CytoFLEX.

JAK2, sequence (O60674 whole entry, species assumed): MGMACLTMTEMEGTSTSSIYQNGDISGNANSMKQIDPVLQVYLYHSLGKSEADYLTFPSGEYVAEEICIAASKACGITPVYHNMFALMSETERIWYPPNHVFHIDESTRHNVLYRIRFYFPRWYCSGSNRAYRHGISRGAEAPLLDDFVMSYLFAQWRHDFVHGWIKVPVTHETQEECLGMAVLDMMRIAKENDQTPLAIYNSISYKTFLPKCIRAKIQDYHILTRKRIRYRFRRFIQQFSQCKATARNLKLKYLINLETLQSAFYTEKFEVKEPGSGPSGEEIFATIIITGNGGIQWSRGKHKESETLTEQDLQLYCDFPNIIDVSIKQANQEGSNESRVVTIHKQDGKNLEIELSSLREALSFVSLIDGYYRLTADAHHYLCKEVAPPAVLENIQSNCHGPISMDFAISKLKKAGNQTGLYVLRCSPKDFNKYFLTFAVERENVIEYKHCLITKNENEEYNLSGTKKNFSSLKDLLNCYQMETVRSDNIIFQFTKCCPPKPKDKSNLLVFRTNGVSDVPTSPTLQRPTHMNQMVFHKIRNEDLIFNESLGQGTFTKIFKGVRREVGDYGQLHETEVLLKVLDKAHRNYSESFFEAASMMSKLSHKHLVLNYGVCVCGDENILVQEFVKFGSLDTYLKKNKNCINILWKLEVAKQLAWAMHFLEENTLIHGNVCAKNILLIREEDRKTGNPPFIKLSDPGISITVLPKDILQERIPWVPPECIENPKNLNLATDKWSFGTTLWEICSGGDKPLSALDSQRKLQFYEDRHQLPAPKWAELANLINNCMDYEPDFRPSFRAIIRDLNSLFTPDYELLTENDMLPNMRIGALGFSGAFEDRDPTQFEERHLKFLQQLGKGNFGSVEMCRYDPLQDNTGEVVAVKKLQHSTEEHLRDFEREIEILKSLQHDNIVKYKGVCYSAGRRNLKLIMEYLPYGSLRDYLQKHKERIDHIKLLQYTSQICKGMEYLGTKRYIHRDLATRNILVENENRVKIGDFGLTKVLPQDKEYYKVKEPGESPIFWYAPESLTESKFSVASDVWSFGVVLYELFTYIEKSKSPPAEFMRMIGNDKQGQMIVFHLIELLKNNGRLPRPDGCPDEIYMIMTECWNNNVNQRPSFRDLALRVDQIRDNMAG

Structure (SMILES) | IC50 (JAK2; Table 3a, read-out: IC50 JAK2) | IC50 (JAK1; Table 3a, read-out: IC50 JAK1) | Dog LM QH [1] | IC50 (IL-4/pSTAT6) | IC50 (JAK2; IC50 JAK2, Table 3a) | IC50 (JAK1; IC50 JAK1, Table 3a)
Cc1cnc(Nc2cc3c(c(C(F)(F)F)c2)B(O)OC3)nc1N[C@H]1CCCC[C@@H]1C#N (single isomer, unassigned) [Example 011b, (trans)-2-((2-((1-hydroxy-7-(trifluoromethyl)-1,3-dihydrobenzo[c][1,2]oxaborol-5-yl)amino)-5-methylpyrimidin-4-yl)amino)cyclohexane-1-carbonitrile] | 197 nM | 10 nM | <19.9% |  |  | 
Cc1cnc(Nc2cc(C#N)c3c(c2)COB3O)nc1N[C@H]1CCCC[C@@H]1C#N (single isomer, unassigned) [Example 012a, 5-((4-(((trans)-2-cyanocyclohexyl)amino)-5-methylpyrimidin-2-yl)amino)-1-hydroxy-1,3-dihydrobenzo[c][1,2]oxaborole-7-carbonitrile] | 2.4 nM | 0.6 nM | <19.9% |  |  | 
Cc1cnc(Nc2cc(C)c3c(c2)COB3O)nc1N[C@@H]1CCCC[C@H]1C#N (relative stereo) [Example 009, (trans)-2-((2-((1-hydroxy-7-methyl-1,3-dihydrobenzo[c][1,2]oxaborol-5-yl)amino)-5-methylpyrimidin-4-yl)amino)cyclohexane-1-carbonitrile] | 13.8 nM | 1.1 nM | <19.9% |  |  | 
Cc1cnc(Nc2cc(Cl)c3c(c2)C(C(C)C)=CB(O)O3)nc1N[C@H]1COCC[C@@H]1C#N (single isomer, unassigned) [Example 040b, (trans)-3-((2-((8-chloro-2-hydroxy-4-isopropyl-2H-benzo[e][1,2]oxaborinin-6-yl)amino)-5-methylpyrimidin-4-yl)amino)tetrahydro-2H-pyran-4-carbonitrile] | 16.7 nM | 1.1 nM | 47.4% | 1410 nM |  | 
Cc1cnc(Nc2cc(F)c3c(c2)C=CB(O)O3)nc1N[C@@H]1COCC[C@H]1C#N (single isomer, unassigned) [Example 036a, (trans)-3-((2-((8-fluoro-2-hydroxy-2H-benzo[e][1,2]oxaborinin-6-yl)amino)-5-methylpyrimidin-4-yl)amino)tetrahydro-2H-pyran-4-carbonitrile] | 4.8 nM | 0.3 nM | 33.1% | 158 nM |  | 
Cc1cnc(Nc2ccc3c(c2)OB(O)C=C3)nc1N[C@@H]1COCC[C@H]1C#N (relative stereo) [Example 034, (trans)-3-[[2-[(2-hydroxy-1,2-benzoxaborinin-7-yl)amino]-5-methyl-pyrimidin-4-yl]amino]tetrahydropyran-4-carbonitrile] | 33.7 nM | 1.1 nM | 74.7% |  |  | 
COc1cc(Nc2ncc(C)c(N[C@H]3COCC[C@@H]3C#N)n2)cc2c1B(O)OC2 (single isomer, unassigned) [Example 044a, (trans)-3-((2-((1-hydroxy-7-methoxy-1,3-dihydrobenzo[c][1,2]oxaborol-5-yl)amino)-5-methylpyrimidin-4-yl)amino)tetrahydro-2H-pyran-4-carbonitrile] | 0.8 nM | 0.2 nM | 34.9% |  |  | 
Cc1cnc(Nc2cc3c(c(C(F)(F)F)c2)B(O)OC3)nc1N[C@@H]1COCC[C@H]1C#N (single isomer, unassigned) [Example 033b, (trans)-3-[[2-[[1-hydroxy-7-(trifluoromethyl)-3H-2,1-benzoxaborol-5-yl]amino]-5-methyl-pyrimidin-4-yl]amino]tetrahydropyran-4-carbonitrile] | 389 nM | 16.3 nM | 64.9% |  |  | 
Cc1cnc(Nc2cc(F)c3c(c2)C=CB(O)O3)nc1N[C@@H]1COCC[C@H]1C#N (single isomer, unassigned) [Example 036b, (trans)-3-((2-((8-fluoro-2-hydroxy-2H-benzo[e][1,2]oxaborinin-6-yl)amino)-5-methylpyrimidin-4-yl)amino)tetrahydro-2H-pyran-4-carbonitrile] | 102 nM | 8.2 nM | 37.3% |  |  | 
Cc1cnc(Nc2cc(Cl)c3c(c2)C(C(C)C)=CB(O)O3)nc1N[C@H]1COCC[C@@H]1C#N (single isomer, unassigned) [Example 040a, (trans)-3-((2-((8-chloro-2-hydroxy-4-isopropyl-2H-benzo[e][1,2]oxaborinin-6-yl)amino)-5-methylpyrimidin-4-yl)amino)tetrahydro-2H-pyran-4-carbonitrile] | > 1000 nM | > 1000 nM | 32.9% |  |  | 
Cc1cnc(Nc2ccc3c(c2)C(C)(C)OB3O)nc1N[C@@H]1CCCC[C@H]1C#N (relative stereo) [Example 014, (trans)-2-[[2-[(1-hydroxy-3,3-dimethyl-2,1-benzoxaborol-5-yl)amino]-5-methylpyrimidin-4-yl]amino]cyclohexanecarbonitrile hydrochloride] | 6.3 nM | 1.4 nM | 48.7% |  |  | 
COc1cc(Nc2ncc(C)c(N[C@H]3COCC[C@@H]3C#N)n2)cc2c1B(O)OC2 (single isomer, unassigned) [Example 044b, (trans)-3-((2-((1-hydroxy-7-methoxy-1,3-dihydrobenzo[c][1,2]oxaborol-5-yl)amino)-5-methylpyrimidin-4-yl)amino)tetrahydro-2H-pyran-4-carbonitrile] | 96.8 nM | 33.8 nM | <19.9% |  |  | 
CC1=Cc2cc(Nc3ncc(C)c(N[C@@H]4CCCC[C@H]4C#N)n3)ccc2OB1O (relative stereo) [Example 016, (trans)-2-((2-((2-hydroxy-3-methyl-2H-benzo[e][1,2]oxaborinin-6-yl)amino)-5-methylpyrimidin-4-yl)amino)cyclohexane-1-carbonitrile] | 17.5 nM | 2.5 nM | 70.2% |  |  | 
Cc1cnc(Nc2cc3c(c(C(F)(F)F)c2)B(O)OC3)nc1N[C@H]1COC[C@@H]1C#N (single isomer, unassigned) [Example 043b, (trans)-4-[[2-[[1-hydroxy-7-(trifluoromethyl)-3H-2,1-benzoxaborol-5-yl]amino]-5-methyl-pyrimidin-4-yl]amino]tetrahydrofuran-3-carbonitrile] | 298 nM | 7.6 nM | <19.9% |  |  | 
Cc1cc(Nc2ncc(Cl)c(N[C@H]3COCC[C@@H]3C#N)n2)cc2c1B(O)OC2 (single isomer, unassigned) [Example 041b, (trans)-3-[[5-chloro-2-[(1-hydroxy-7-methyl-3H-2,1-benzoxaborol-5-yl)amino]pyrimidin-4-yl]amino]tetrahydropyran-4-carbonitrile] |  |  | <19.9% |  | 134 nM | 36.2 nM
Cc1cnc(Nc2cc(C#N)c3c(c2)COB3O)nc1N[C@@H]1CCC[C@H]1C#N (relative stereo) [Example 018, 5-((4-(((trans)-2-cyanocyclopentyl)amino)-5-methylpyrimidin-2-yl)amino)-1-hydroxy-1,3-dihydrobenzo[c][1,2]oxaborole-7-carbonitrile] | 10.4 nM | 0.5 nM | <19.9% |  |  | 
N#C[C@H]1CCOC[C@@H]1Nc1nc(Nc2cc3c(c(C(F)(F)F)c2)B(O)OC3)ncc1Cl (single isomer, unassigned) [Example 042b, (trans)-3-((5-chloro-2-((1-hydroxy-7-(trifluoromethyl)-1,3-dihydrobenzo[c][1,2]oxaborol-5-yl)amino)pyrimidin-4-yl)amino)tetrahydro-2H-pyran-4-carbonitrile] | 690 nM | 98.2 nM | <19.9% |  |  | 
Cc1cnc(Nc2cc(Cl)c3c(c2)COB3O)nc1N[C@@H]1CCCOC1 [Example 030a] | 868 nM | 51.1 nM | <19.9% |  |  | 
Cc1cnc(Nc2cc3c(c(C4CC4)c2)B(O)OC3)nc1N[C@@H]1COCC[C@H]1C#N (relative stereo) [Example 025, (trans)-3-[[2-[(7-cyclopropyl-1-hydroxy-3H-2,1-benzoxaborol-5-yl)amino]-5-methyl-pyrimidin-4-yl]amino]tetrahydropyran-4-carbonitrile] | 24.2 nM | 0.4 nM | <19.9% |  |  | 
